Patent publication US10174023B2, “Heterocyclic-imidazole compounds, pharmaceutical compositions thereof, preparation method therefor and use thereof” (SHANGHAI HUILUN LIFE SCIENCE & TECHNOLOGY CO., LTD, priority 2015, dated 2019)
Where two headings read alike, the source gives them in different places.

Columns and labels:
MDA-MB-436 cells = assay: Cell proliferation inhibition assay (CellTiter-Glo, 120 hrs); assay type: cell-based, human; conditions: 120 hrs incubation, read-out: ED50 (MDA-MB-436)
Description: Example 2. Cell Proliferation Inhibition Assay
The proliferation inhibitory activity of the compound of the present invention on the breast cancer cell line MDA-MB-436 of triple negative phenotype was tested in vitro.
1. Tumor cell line MDA-MB-436 supplied from HD Biosciences (Shanghai) Co., Ltd., and passed the Mycoplasma detection.
7. CellTiter-Glo Luminescent Cell Viability Assay, Promega, Catalog #: G7571.
Formulation of Compound Solutions
1. Each test compound was formulated into a 60 mM stock solution in DMSO, packaged, and stored in a freezer at −80°. The stock solution of each test compound was serially diluted in DMSO to give solutions at various concentration gradients, including 6 mM, 2 mM, 0.6 mM, 0.2 mM, 60 μM, and 20 μM.
2. Just before experiment, the formulated solution at various concentration gradients of each test compound was aseptically 100-fold diluted in the complete cell culture medium. In this case, the concentration gradients of the test compound included 60 μM, 20 μM, 6 μM, 2 μM, 0.6 μM, and 0.2 μM. These were 2× compound solutions, and could be used to treat the cells.
3. The stock solution of Compounds (1) to (21) and the control compound AZD2281 was serially diluted in DMSO to give solutions at various concentration gradients, including 20 μM, 2 μM, 0.2 μM, 0.02 μM, 0.002 μM, and 0.0002 μM. Before experiment, the formulated solution at various concentration gradients of each test compound was aseptically 100-fold diluted in the complete cell culture medium. The concentration gradients of the positive compound included 200 nM, 20 nM, 2 nM, 0.2 nM, 0.02 nM, and 0.002 nM. These were 2× compound solutions, and could be used to treat the cells.
1. One day before treatment with the compounds, the cells were inoculated into a 96-well plate at a density of 8000 cells/50 μl/well.
2. On the following day, the formulated 2× compound solutions were added, in accordance with a compound arrangement pattern, to the plate in an amount of 50 μl/well.
3. The plate was gently agitaged, and incubated for 120 hrs in an incubator at 37° C.
4. After incubation, the formulated reagent was added to the plate following instruction of the CellTiter Glo reagent, fully mixed, and incubated for 10 min at room temperature in the dark.
5. The plate was analyzed on a plate reader, the chemiluminescence was read, and the data was recorded.
The reading of each well needs to be converted into cell viability. The cell viability can be calculated using the following formula: […]
The processed data was subjected to non-linear regression analysis by using the GraphPad Prism5 analysis software, to obtain a dose-response curve; and the median effective dose (ED50) of test compounds for the MDA-MB-436 cells was calculated.

[1] = test system: Human breast cancer MDA-MB-436 cells; assay: Tumor inhibition in nude mice tumor model transplanted with human breast cancer MDA-MB-436 cells; assay type: in vivo, BALB/cA-nude mice; conditions: MDA-MB-436 xenograft in nude mice, oral, 30 mg/kg, once a day, consecutive 14 days
Description: (§1) Example 3. Test of Tumor Inhibition Effect of Compounds of the Present Invention in Mice The following experiments were conducted to evaluate and compare the effects of the present compound alone in mice tumor models transplanted with human breast cancer cell line MDA-MB-436, human breast cancer cell line MX-1 or human pancreatic cancer cell line CAPAN-1 in vivo.
(§2) Test Compound: Example Compound (4)
(§3) BALB/cA-nude mice, 6-7 weeks, female, available from Shanghai SLAC Laboratory Animal Co., Ltd. Certificate number: SCXK (Shanghai) 2012-0002. Breeding environment: SPF grade.
(§4) The Nude mice were subcutaneously inoculated with human breast cancer MDA-MB-436 cells, human breast cancer MX-1 cells or human pancreatic cancer CAPAN-1 cells. After the tumor grew to 100-200 mm^3, the animals were grouped at random (D0). The tumor volume was measured twice or thrice a week, the body weight of the mice was weighed, and the data was recorded. The tumor volume (V) is calculated by using a formula below: V=½×a×b^2 […]
(§5) in which a, and b denote the length and width. T/C(%)=(T−T0)/(C−C0)×100 in which T are C are the tumor volumes at the end of the experiment; and T0 and C0 are the tumor volumes at the beginning of the experiment.

[2] = test system: Human breast cancer MX-1 cells; assay: Tumor inhibition in nude mice tumor model transplanted with human breast cancer MX-1 cells; assay type: in vivo, BALB/cA-nude mice; conditions: MX-1 xenograft in nude mice, oral, 50 mg/kg, once a day, consecutive 21 days
Description: as §1, §2, §3, §4, §5

[3] = test system: Human pancreatic cancer CAPAN-1 cells; assay: Tumor inhibition in nude mice tumor model transplanted with human pancreatic cancer CAPAN-1 cells; assay type: in vivo, BALB/cA-nude mice; conditions: CAPAN-1 xenograft in nude mice, oral, 50 mg/kg, once a day, consecutive 21 days
Description: as §1, §2, §3, §4, §5

IC50 (MDA-MB-436 cells; Homo sapiens) | SMILES | also measured
> 25 µM | O=C(c1cc(Cc2n[nH]c(=O)c3ccccc23)ccc1F)N1CCN(c2ccc3[nH]nnc3n2)CC1 [Compound (1), 4-(3-(4-(1H-[1,2,3]triazolo[4,5-b]pyridin-5-yl)piperazine-1-carbonyl)-4-fluorobenzyl)phthalazin-1(2H)-one] | –
> 25 µM | Cc1nc2nc(N3CCN(C(=O)c4cc(Cc5n[nH]c(=O)c6ccccc56)ccc4F)CC3)ccc2[nH]1 [Compound (2), 4-(4-fluoro-3-(4-(2-methyl-1H-imidazo[4,5-b]pyridin-5-yl)piperazine-1-carbonyl)benzyl)phthalazin-1(2H)-one] | –
– | O=C(c1cc(Cc2n[nH]c(=O)c3ccccc23)ccc1F)N1CCN(c2ccc3[nH]c(C(F)(F)F)nc3n2)CC1 [Compound (3)] | IC50 (MDA-MB-436 cells): >25 µM
0.7 µM | O=C(c1cc(Cc2n[nH]c(=O)c3ccccc23)ccc1F)N1CCN(c2ccc3[nH]cnc3n2)CC1 [Compound (4), 4-(3-(4-(1H-imidazo[4,5-b]pyridin-5-yl)piperazine-1-carbonyl)-4-fluorobenzyl)phthalazin-1(2H)-one] | Tumor inhibition [1]: 191%; Tumor inhibition [2]: 193%; Tumor inhibition [3]: 128%
> 25 µM | O=C(c1cc(Cc2n[nH]c(=O)c3ccccc23)ccc1F)N1CCN(c2ccc3[nH]c(=O)[nH]c3n2)CC1 [Compound (5), 4-(4-fluoro-3-(4-(2-oxo-2,3-dihydro-1H-imidazo[4,5-b]pyridin-5-yl)piperazine-1-carbonyl)benzyl)phthalazin-1(2H)-one] | –
18 µM | O=C(c1cc(Cc2n[nH]c(=O)c3ccccc23)ccc1F)N1CCN(c2cc3nc[nH]c3cn2)CC1 [Compound (6), 4-(3-(4-(3H-imidazo[4,5-c]pyridin-6-yl)piperazine-1-carbonyl)-4-fluorobenzyl)phthalazin-1(2H)-one] | –
> 25 µM | O=C(c1cc(Cc2n[nH]c(=O)c3ccccc23)ccc1F)N1CCN(c2cnc3[nH]cnc3c2)CC1 [Compound (7), 4-(3-(4-(3H-imidazo[4,5-b]pyridin-6-yl)piperazine-1-carbonyl)-4-fluorobenzyl)phthalazin-1(2H)-one] | –
1.4 µM | O=C(c1cc(Cc2n[nH]c(=O)c3ccccc23)ccc1F)N1CCN(c2ncc3[nH]cnc3n2)CC1 [Compound (8), 4-(3-(4-(7H-purin-2-yl)piperazine-1-carbonyl)-4-fluorobenzyl)phthalazin-1(2H)-one] | –
> 25 µM | O=C(c1cccc(Cc2n[nH]c(=O)c3ccccc23)c1)N1CCN(c2ccc3[nH]c(=O)[nH]c3n2)CC1 [Compound (9)] | –
> 25 µM | O=C(c1cccc(Cc2n[nH]c(=O)c3ccccc23)c1)N1CCN(c2ccc3[nH]nnc3n2)CC1 [Compound (10), 4-(3-(4-(1H-[1,2,3]triazolo[4,5-b]pyridin-5-yl)piperazine-1-carbonyl)-benzyl)phthalazin-1 (2H)-one] | –
> 25 µM | Cc1nc2nc(N3CCN(C(=O)c4cccc(Cc5n[nH]c(=O)c6ccccc56)c4)CC3)ccc2[nH]1 [Compound (11), 4-(3-(4-(2-methyl-1H-imidazo[4,5-b]pyridin-5-yl)piperazine-1-carbonyl)benzyl)phthalazin-1(2H)-one] | –
– | O=C(c1cccc(Cc2n[nH]c(=O)c3ccccc23)c1)N1CCN(c2ccc3[nH]c(C(F)(F)F)nc3n2)CC1 [Compound (12)] | IC50 (MDA-MB-436 cells): >25 µM
0.7 µM | O=C(c1cccc(Cc2n[nH]c(=O)c3ccccc23)c1)N1CCN(c2ccc3[nH]cnc3n2)CC1 [Compound (13), 4-(3-(4-(1H-imidazo[4,5-b]pyridin-5-yl)piperazine-1-carbonyl)benzyl)phthalazin-1(2H)-one] | –
6.8 µM | COc1ccc(Cc2n[nH]c(=O)c3ccccc23)cc1C(=O)N1CCN(c2ccc3[nH]cnc3n2)CC1 [Compound (14), 4-(3-(4-(1H-imidazo[4,5-b]pyridin-5-yl)piperazine-1-carbonyl)-4-methoxybenzyl)phthalazin-1(2H)-one] | –
23 µM | O=C(c1cc(Cc2n[nH]c(=O)c3ccccc23)ccc1C(F)(F)F)N1CCN(c2ccc3[nH]cnc3n2)CC1 [Compound (15), 4-(3-(4-(1H-imidazo[4,5-b]pyridin-5-yl)piperazine-1-carbonyl)-4-trifluoromethylbenzyl)phthalazin-1(2H)-one] | –
> 25 µM | O=C(c1cc(Cc2n[nH]c(=O)c3ccccc23)ccc1C(F)(F)F)N1CCN(c2ccc3[nH]nnc3n2)CC1 [Compound (16), 4-(3-(4-(1H-[1,2,3]triazolo[4,5-b]pyridin-5-yl)piperazine-1-carbonyl)-4-trifluoromethylbenzyl)phthalazin-1(2H)-one] | –
> 25 µM | O=C(c1cc(Cc2n[nH]c(=O)c3ccccc23)ccc1C(F)(F)F)N1CCN(c2ccc3[nH]c(=O)[nH]c3n2)CC1 [Compound (17), 4-(3-(4-(2-oxo-2,3-dihydro-1H-imidazo[4,5-b]pyridin-5-yl)piperazine-1-carbonyl)-4-trifluoromethylbenzyl)phthalazin-1(2H)-one] | –
> 25 µM | COc1ccc(Cc2n[nH]c(=O)c3ccccc23)cc1C(=O)N1CCN(c2cc3nc[nH]c3cn2)CC1 [Compound (18), 4-(3-(4-(3H-imidazo[4,5-c]pyridin-6-yl)piperazine-1-carbonyl)-4-methoxybenzyl)phthalazin-1(2H)-one] | –
> 25 µM | O=C(c1cc(Cc2n[nH]c(=O)c3ccccc23)ccc1C(F)(F)F)N1CCN(c2cc3nc[nH]c3cn2)CC1 [Compound (19), 4-(3-(4-(3H-imidazo[4,5-c]pyridin-6-yl)piperazine-1-carbonyl)-4-trifluoromethylbenzyl)phthalazin-1(2H)-one] | –
> 25 µM | O=C(c1cc(Cc2n[nH]c(=O)c3ccccc23)ccc1C(F)(F)F)N1CCN(c2cnc3[nH]cnc3c2)CC1 [Compound (20), 4-(3-(4-(3H-imidazo[4,5-b]pyridin-6-yl)piperazine-1-carbonyl)-4-trifluoromethylbenzyl)phthalazin-1(2H)-one] | –
> 25 µM | COc1ccc(Cc2n[nH]c(=O)c3ccccc23)cc1C(=O)N1CCN(c2cnc3[nH]cnc3c2)CC1 [Compound (21), 4-(3-(4-(3H-imidazo[4,5-b]pyridin-6-yl)piperazine-1-carbonyl)-4-methoxybenzyl)phthalazin-1(2H)-one] | –

SMILES | IC50 (MDA-MB-436 cells; Homo sapiens) | also measured
O=C(c1cc(Cc2n[nH]c(=O)c3ccccc23)ccc1F)N1CCN(C(=O)C2CC2)CC1 [AZD2281, reference compound] | > 25 µM | Tumor inhibition [1]: 83%; Tumor inhibition [2]: 13%; Tumor inhibition [3]: 57%
